In patent US12534450B2, “Methods and compositions for targeting PD-L1” (Aligos Therapeutics, Inc., priority 2021, dated 2026):
pEC50, pIC50: −log10 of the molar value.

Legend:
[1] = biological target: PD-1/PD-L1 PPI (Homo sapiens, UniProt Q9NZQ7); experiment: PDL1/PD1 Binding Assay; conditions: PDL1-6×His 0.3 nM, PD1-Fc-Avi-Biotin 2.5 nM, Acceptor/Donor beads, Envision reader
Experimental: Compounds to be tested were serially diluted in DMSO, and further diluted in assay buffer (25 mM Hepes pH 7.4, 150 mM NaCl, 0.005% Tween 20, BSA 0.01%). Diluted compounds were added to the wells with final concentration of DMSO at 1%. PDL1-6×His protein was added to the wells, mixed well with compound. The plates were incubated for 30 min at room temperature. PD1-Fc-Avi-Biotin protein was added to the wells. Final concentration of PDL1 and PD1 protein is 0.3 nM and 2.5 nM, respectively. After a binding time of 30 min at room temperature, Anti-6×His Acceptor beads (final concentration 20 ug/ml) were added to the wells, and the incubation continued for 1 h. Streptavidin Donor beads (final concentration 20 ug/mL) were added at reduced light. The plates were sealed with foil and incubated in the dark for additional 1 h or overnight before reading on an Envision reader. The IC50 values were determined by fitting the curves using a four-parameter equation in Graphpad Prism 8.

[2] = system: PD-1/PD-L1 interaction; experiment: PD-1/PD-L1 NFAT Reporter Assay (co-culture of Jurkat T cells overexpressing PD-1 and PD-L1 expressing CHO cells); type: cell-based; conditions: co-culture 6 hrs at 37° C., NFAT-mediated luciferase activity
Experimental: Blocking the PD-1/PD-L1 interaction will release the inhibitory signal and results in TCR signaling and NFAT-mediated luciferase activity.
CHO cells expressing surface-bound anti-CD3 antibodies and PD-L1 were first seeded overnight and treated with the compounds. Jurkat cells overexpressing PD-1 and a luciferase construct under NFAT promoter were then immediately seeded on the monolayer of CHO cells. The co-culture was then incubated for 6 hrs at 37° C. Luciferase activity was assessed by adding the ONE-Glo reagent and measuring luminescence with a plate reader. EC50 values were determined from the fit of the dose-response curves.

Sequence of PD-1/PD-L1 PPI (Q9NZQ7 19-238 limits assumed): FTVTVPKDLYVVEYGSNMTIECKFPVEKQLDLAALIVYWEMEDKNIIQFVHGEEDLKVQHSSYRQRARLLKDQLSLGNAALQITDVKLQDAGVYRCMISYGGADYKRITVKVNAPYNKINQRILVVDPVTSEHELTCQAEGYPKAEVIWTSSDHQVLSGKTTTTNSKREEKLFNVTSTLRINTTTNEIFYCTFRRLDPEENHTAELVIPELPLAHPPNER

pIC50 [1]	pEC50 ([2]; Homo sapiens, Jurkat, 6 h)	pEC50 [2]	SMILES
7.00 to 8.00	5.00 to 6.00	–	COc1nc(-c2cccc(-c3cccc(NC(=O)c4cn(C)c(=O)n(C)c4=O)c3C)c2C)cc2c1[C@@H](N[C@@H]1CCOC[C@H]1O)CC2 (single isomer, unassigned) [Compound A-89]
≥ 8.00	7.00 to 8.00	–	COc1nc(-c2cccc(-c3cccc(NC(=O)c4cn(C)c(=O)n(C)c4=O)c3C)c2C)cc2c1[C@H](N[C@@H]1CCOC[C@H]1O)CC2 (single isomer, unassigned) [Compound A-90]
≥ 8.00	5.00 to 6.00	–	COc1nc(-c2cccc(-c3cccc(NC(=O)c4nn(C)c(=O)n(C)c4=O)c3C)c2C)cc2c1[C@@H](N[C@@H]1CCOC[C@H]1O)CC2 (single isomer, unassigned) [Compound A-91]
≥ 8.00	7.00 to 8.00	–	COc1nc(-c2cccc(-c3cccc(NC(=O)c4nn(C)c(=O)n(C)c4=O)c3C)c2C)cc2c1[C@H](N[C@@H]1CCOC[C@H]1O)CC2 (single isomer, unassigned) [Compound A-92]
≥ 8.00	6.00 to 7.00	–	COc1nc(-c2cccc(-c3cccc(NC(=O)c4nn(C)c(=O)n(C)c4=O)c3Cl)c2Cl)cc2c1[C@@H](N[C@@H]1CCOC[C@H]1O)CC2 (single isomer, unassigned) [Compound A-93]
≥ 8.00	≥ 8.00	–	COc1nc(-c2cccc(-c3cccc(NC(=O)c4nn(C)c(=O)n(C)c4=O)c3Cl)c2Cl)cc2c1[C@H](N[C@@H]1CCOC[C@H]1O)CC2 (single isomer, unassigned) [Compound A-94]
≥ 8.00	6.00 to 7.00	–	COc1nc(-c2cccc(-c3cccc(NC(=O)c4nn(C)c(=O)n(C)c4=O)c3C)c2Cl)cc2c1[C@@H](N[C@@H]1CCOC[C@H]1O)CC2 (single isomer, unassigned) [Compound A-95]
7.00 to 8.00	5.00 to 6.00	–	COc1nc(-c2cccc(-c3cccc(NC(=O)c4cn(C)c(=O)n(C)c4=O)c3C)c2C)cc2c1[C@@H](N[C@@H]1COC[C@H]1O)CC2 (single isomer, unassigned) [Compound A-97]
≥ 8.00	6.00 to 7.00	–	COc1nc(-c2cccc(-c3cccc(NC(=O)c4cn(C)c(=O)n(C)c4=O)c3C)c2C)cc2c1[C@H](N[C@@H]1COC[C@H]1O)CC2 (single isomer, unassigned) [Compound A-98]
≥ 8.00	6.00 to 7.00	–	COc1nc(-c2cccc(-c3cccc(NC(=O)c4nn(C)c(=O)n(C)c4=O)c3Cl)c2Cl)cc2c1[C@@H](N[C@@H]1COC[C@H]1O)CC2 (single isomer, unassigned) [Compound A-99]
≥ 8.00	≥ 8.00	–	COc1nc(-c2cccc(-c3cccc(NC(=O)c4nn(C)c(=O)n(C)c4=O)c3Cl)c2Cl)cc2c1[C@H](N[C@@H]1COC[C@H]1O)CC2 (single isomer, unassigned) [Compound A-100]
≥ 8.00	< 5.30	–	COc1nc(-c2cccc(-c3cccc(NC(=O)c4nn(C)c(=O)n(C)c4=O)c3C)c2Cl)cc2c1[C@@H](N[C@@H]1COC[C@H]1O)CC2 (single isomer, unassigned) [Compound A-101]
≥ 8.00	≥ 8.00	–	COc1nc(-c2cccc(-c3cccc(NC(=O)c4nn(C)c(=O)n(C)c4=O)c3C)c2Cl)cc2c1[C@H](N[C@@H]1COC[C@H]1O)CC2 (single isomer, unassigned) [Compound A-102]
7.00 to 8.00	< 5.30	–	COc1nc(-c2cccc(-c3cccc(NC(=O)c4nn(C)c(=O)n(C)c4=O)c3C)c2C)cc2c1[C@@H](N[C@@H]1COC[C@H]1O)CC2 (single isomer, unassigned) [Compound A-103]
≥ 8.00	7.00 to 8.00	–	COc1nc(-c2cccc(-c3cccc(NC(=O)c4nn(C)c(=O)n(C)c4=O)c3C)c2C)cc2c1[C@H](N[C@@H]1COC[C@H]1O)CC2 (single isomer, unassigned) [Compound A-104]
7.00 to 8.00	7.00 to 8.00	–	COc1nc(-c2cccc(-c3cccc(NC(=O)c4cn(C)c(=O)n(C)c4=O)c3C)c2C)cc2c1[C@@H](N[C@@H]1COC[C@@H]1O)CC2 (single isomer, unassigned) [Compound A-105]
≥ 8.00	6.00 to 7.00	–	COc1nc(-c2cccc(-c3cccc(NC(=O)c4cn(C)c(=O)n(C)c4=O)c3C)c2C)cc2c1[C@H](N[C@@H]1COC[C@@H]1O)CC2 (single isomer, unassigned) [Compound A-106]
≥ 8.00	≥ 8.00	–	COc1nc(-c2cccc(-c3cccc(NC(=O)c4nn(C)c(=O)n(C)c4=O)c3Cl)c2Cl)cc2c1[C@@H](N[C@@H]1COC[C@@H]1O)CC2 (single isomer, unassigned) [Compound A-107]

pIC50 [1]	pEC50 ([2]; Homo sapiens, Jurkat, 6 h)	pEC50 [2]	SMILES
≥ 8.00	6.00 to 7.00	–	COc1nc(-c2cccc(-c3cccc(NC(=O)c4nn(C)c(=O)n(C)c4=O)c3Cl)c2Cl)cc2c1[C@H](N[C@@H]1COC[C@@H]1O)CC2 (single isomer, unassigned) [Compound A-108]
≥ 8.00	≥ 8.00	–	COc1nc(-c2cccc(-c3cccc(NC(=O)c4nn(C)c(=O)n(C)c4=O)c3C)c2Cl)cc2c1[C@@H](N[C@@H]1COC[C@@H]1O)CC2 (single isomer, unassigned) [Compound A-109]
≥ 8.00	6.00 to 7.00	–	COc1nc(-c2cccc(-c3cccc(NC(=O)c4nn(C)c(=O)n(C)c4=O)c3C)c2Cl)cc2c1[C@H](N[C@@H]1COC[C@@H]1O)CC2 (single isomer, unassigned) [Compound A-110]
≥ 8.00	7.00 to 8.00	–	COc1nc(-c2cccc(-c3cccc(NC(=O)c4nn(C)c(=O)n(C)c4=O)c3C)c2C)cc2c1[C@@H](N[C@@H]1COC[C@@H]1O)CC2 (single isomer, unassigned) [Compound A-111]
≥ 8.00	5.00 to 6.00	–	COc1nc(-c2cccc(-c3cccc(NC(=O)c4nn(C)c(=O)n(C)c4=O)c3C)c2C)cc2c1[C@H](N[C@@H]1COC[C@@H]1O)CC2 (single isomer, unassigned) [Compound A-112]
7.00 to 8.00	5.00 to 6.00	–	COc1nc(-c2cccc(-c3cccc(NC(=O)c4cn(C)c(=O)n(C)c4=O)c3C)c2Cl)cc2c1[C@@H](NC[C@H]1CCC(=O)N1)CC2 (single isomer, unassigned) [Compound A-113]
≥ 8.00	≥ 8.00	–	COc1nc(-c2cccc(-c3cccc(NC(=O)c4cn(C)c(=O)n(C)c4=O)c3C)c2Cl)cc2c1[C@H](NC[C@H]1CCC(=O)N1)CC2 (single isomer, unassigned) [Compound A-114]
≥ 8.00	7.00 to 8.00	–	COCCOc1nc(-c2cccc(-c3cccc(NC(=O)c4cn(C)c(=O)n(C)c4=O)c3C)c2Cl)cc2c1[C@@H](NC[C@@H]1CCC(=O)N1)CC2 (single isomer, unassigned) [Compound A-115]
≥ 8.00	5.00 to 6.00	–	COCCOc1nc(-c2cccc(-c3cccc(NC(=O)c4cn(C)c(=O)n(C)c4=O)c3C)c2Cl)cc2c1[C@H](NC[C@@H]1CCC(=O)N1)CC2 (single isomer, unassigned) [Compound A-116]
≥ 8.00	–	< 5.30	COc1nc(-c2cccc(-c3cccc(NC(=O)c4cn(C)c(=O)n(C)c4=O)c3C)c2Cl)cc2c1C(NC[C@@H]1CCC(=O)N1)C(O)C2 (single isomer, unassigned) [Compound A-125]
≥ 8.00	–	7.00 to 8.00	COc1nc(-c2cccc(-c3cccc(NC(=O)c4cn(C)c(=O)n(C)c4=O)c3C)c2Cl)cc2c1C(NC[C@@H]1CCC(=O)N1)C(O)C2 (single isomer, unassigned) [Compound A-126]
≥ 8.00	–	6.00 to 7.00	COc1nc(-c2cccc(-c3cccc(NC(=O)c4cn(C)c(=O)n(C)c4=O)c3C)c2Cl)cc2c1C(NC[C@@H]1CCC(=O)N1)C(O)C2 (single isomer, unassigned) [Compound A-127]
≥ 8.00	–	6.00 to 7.00	COc1nc(-c2cccc(-c3cccc(NC(=O)c4cn(C)c(=O)n(C)c4=O)c3C)c2Cl)cc2c1C(NC[C@@H]1CCC(=O)N1)C(O)C2 (single isomer, unassigned) [Compound A-128]
≥ 8.00	≥ 8.00	–	COc1nc(-c2cccc(-c3cccc(NC(=O)c4cn(C)c(=O)n(C)c4=O)c3Cl)c2Cl)cc2c1[C@@H](N1CC3(CNC(=O)C3)C1)CC2 (single isomer, unassigned) [Compound A-129]
≥ 8.00	7.00 to 8.00	–	COc1nc(-c2cccc(-c3cccc(NC(=O)c4cn(C)c(=O)n(C)c4=O)c3Cl)c2Cl)cc2c1C(N1CC3(CNC(=O)C3)C1)CC2 (single isomer, unassigned) [Compound A-130]
≥ 8.00	–	≥ 8.00	COc1nc(-c2cccc(-c3cccc(NC(=O)c4cn(C)c(=O)n(C)c4=O)c3C)c2Cl)cc2c1[C@@H](N1CC3(CNC(=O)C3)C1)CC2 (single isomer, unassigned) [Compound A-131]
≥ 8.00	–	6.00 to 7.00	COc1nc(-c2cccc(-c3cccc(NC(=O)c4cn(C)c(=O)n(C)c4=O)c3C)c2Cl)cc2c1[C@@H](N1CC3(CNC(=O)C3)C1)CC2 (single isomer, unassigned) [Compound A-132]
